Experimental data reported in patent US4201843A, “Process for manufacturing tylosin derivatives” (Sanraku Ocean Co., Ltd., priority 1975, dated 1980).
Converted amounts (≈) assume the structure as drawn.

Key:
[1] = tested on: Streptococcus pyogenes MH 771; test: minimum growth-inhibitory concentration; format: cell-based; settings: MH771, read-out: minimum growth-inhibitory concentration (MIC)
Protocol: (§1) The antimicrobial spectra of new tylosin derivatives of this invention are shown in Table 2 by listing the minimum growth inhibitory concentrations (MIC, mcg/ml). […] The toxicity of these compounds was tested in animals by intravenous administration, and the LD50 values in mice are more than 400 mg/kg with all compounds. In therapeutical experiments with mice manually infected by Staphilococcus aureus SMITH, the ED50 values were less than 50 mg/kg (p.o.) with all said tylosin derivatives.
(broth-dilution method)
(§2) The strains marked * in Table 2 are the drug resistant strains isolated from patients, namely, Staphilococcus aureus MS-9610 which is resistant to penicillin, tetracycline, erythromycin, leucomycin, spiramycin, josamycin and tylosin, Staphilococcus aureus MS-8710 which is resistant to penicillin, tetracycline, erythromycin, leucomycin and tylosin, and Streptococcus pyogenes MH 771 which is resistant to erythromycin, oleandomycin, leucomycin and tylosin.

solubility in solvents = format: physicochemical; settings: for solubility in lower alcohols, ketones, ethers, esters, benzene and toluene: e.g. ethanol, acetone, ethyl ether, ethyl acetate
Text: (§3) The physicochemical analysis and deterimations included elementary analysis, melting point, specific rotatory power, ultraviolet spectrum, infrared spectrum, magnetic nuclear resonance (NMR), C^13 -NMR, mass spectrum (chemical ionization), the release of organic acids under alkaline conditions (gas chromatographical detection), solubility in solvents, color development reaction, basicity of the compounds, appearance and crystalline form. The molecular weight was obtained as QM^+ (Quasi Molecular ion) by chemically-ionized mass spectra analysis.
(§4) (2) the crystals obtained from the solvents in (13) were used for the tests in (1)-(12), and […]

drug resistant strains = test: antimicrobial activity against drug resistant strains; format: cell-based; settings: strains marked * in Table 2
Text: One of the particular advantages of the said tylosin derivatives over known macrolide antibiotics is their distinct antimicrobial activity against drug resistant bacteria.
as §2

[2] = tested on: Staphylococcus aureus MS 9610; test: minimum growth-inhibitory concentration; format: cell-based; settings: MS9610; Staphylococcus aureus MS 9610, drug resistant strain
Protocol: as §1, §2

[3] = tested on: Staphylococcus aureus MS 8710; test: minimum growth-inhibitory concentration; format: cell-based; settings: MS8710; Staphylococcus aureus MS 8710, drug resistant strain
Protocol: as §1, §2

[4] = basicity of the compounds (alkalinity); format: physicochemical
Text: as §3, §4

[5] = tested on: Mycobacterium smegmatis ATCC 607; test: minimum growth-inhibitory concentration; format: cell-based; settings: Mycolicibacterium smegmatis, ATCC607
Protocol: as §1

[6] = tested on: Staphylococcus aureus FAD209P; test: minimum growth-inhibitory concentration; format: cell-based; settings: read-out: minimum growth-inhibitory concentration (MIC)
Protocol: as §1

[7] = tested on: Escherichia coli (National Institute of Health); test: minimum growth-inhibitory concentration; format: cell-based
Protocol: as §1

Micrococcus flavus I = test: minimum growth-inhibitory concentration; format: cell-based
Protocol: as §1

[8] = tested on: Candida albicans IAM 4905; test: minimum growth-inhibitory concentration; format: cell-based; settings: IAM4905
Protocol: as §1

[9] = tested on: Proteus morganii (The Institute for Infectious Diseases); test: minimum growth-inhibitory concentration; format: cell-based; settings: Morganella morganii
Protocol: as §1

[10] = tested on: Candida tropicalis IAM 4924; test: minimum growth-inhibitory concentration; format: cell-based; settings: IAM4924
Protocol: as §1

[11] = tested on: Bacillus subtilis ATCC 6633; test: minimum growth-inhibitory concentration; format: cell-based; settings: ATCC6633
Protocol: as §1

[12] = tested on: Pseudomonas fluorescens NIHJB 254; test: minimum growth-inhibitory concentration; format: cell-based; settings: NIHJB254
Protocol: as §1

Sarcina lutea ATCC 9341 = test: minimum growth-inhibitory concentration; format: cell-based; settings: Micrococcus luteus, ATCC9341
Protocol: as §1

[13] = tested on: Corynebacterium bovis 1810; test: minimum growth-inhibitory concentration; format: cell-based
Protocol: as §1

[14] = tested on: Bacillus megaterium NRRL B-938; test: minimum growth-inhibitory concentration; format: cell-based; settings: Priestia megaterium, NRRLB938
Protocol: as §1

[15] = tested on: Bacillus cereus ATCC 9634; test: minimum growth-inhibitory concentration; format: cell-based; settings: ATCC9634
Protocol: as §1

[16] = tested on: Staphylococcus aureus SMITH; test: minimum growth-inhibitory concentration; format: cell-based
Protocol: as §1

| Structure (SMILES) | MIC [1] [µg/mL] | solubility in acidic water (solubility in solvents) | solubility in alkaline water (solubility in solvents) | solubility in lower alcohols, ketones, ethers, esters, benzene and toluene (solubility in solvents) | solubility in n-hexane and petroleum ether (solubility in solvents) | solubility in neutral water (solubility in solvents) | MIC [2] [µg/mL] | MIC [3] [µg/mL] | alkalinity [4] | MIC [5] [µg/mL] | MIC [6] [µg/mL] | MIC [7] [µg/mL] | MIC (Micrococcus flavus I) [µg/mL] | MIC [8] [µg/mL] | MIC [9] [µg/mL] | MIC [10] [µg/mL] | MIC [11] [µg/mL] | MIC [12] [µg/mL] | MIC (Sarcina lutea ATCC 9341) [µg/mL] | MIC [13] [µg/mL] | further results |
| --- | --- | --- | --- | --- | --- | --- | --- | --- | --- | --- | --- | --- | --- | --- | --- | --- | --- | --- | --- | --- | --- |
| CCC1OC(=O)CC(OC(C)=O)C(C)C(OC2OC(C)C(OC3CC(C)(O)C(OC(=O)CC(C)C)C(C)O3)C(N(C)C)C2O)C(CC=O)CC(C)C(=O)C=CC(C)=CC1COC1OC(C)C(O)C(OC)C1OC (stereo not shown) [3-acetyl-4"-isovaleryltylosin] | 3.91 (≈ 3.75 µM) | soluble | hardly soluble | soluble | hardly soluble | slightly soluble | 62.5 (≈ 60 µM) | 15.6 (≈ 15 µM) | alkaline compounds | 3.91 (≈ 3.75 µM) | 0.49 (≈ 0.47 µM) | 125 (≈ 120 µM) | 0.25 (≈ 0.24 µM) | > 250 | > 250 | > 250 | 0.98 (≈ 0.94 µM) | > 250 | 0.25 (≈ 0.24 µM) | 0.5 (≈ 0.48 µM) | antimicrobial activity against a wide range of drug resistant strains (drug resistant strains): particularly strong antimicrobial activity; MIC [14]: 0.49 µg/mL (≈ 0.47 µM); MIC [15]: 1.95 µg/mL (≈ 1.87 µM); MIC [16]: 0.49 µg/mL (≈ 0.47 µM) |
| CCCC(=O)OC1C(C)OC(OC2C(C)OC(OC3C(CC=O)CC(C)C(=O)C=CC(C)=CC(COC4OC(C)C(O)C(OC)C4OC)C(CC)OC(=O)CC(OC(C)=O)C3C)C(O)C2N(C)C)CC1(C)O (stereo not shown) [3-acetyl-4"-n-butyryltylosin] | 15.6 (≈ 15.2 µM) | soluble | hardly soluble | soluble | hardly soluble | slightly soluble | 250 (≈ 243 µM) | 15.6 (≈ 15.2 µM) | alkaline compounds | 1.95 (≈ 1.9 µM) | 0.25 (≈ 0.243 µM) | 250 (≈ 243 µM) | 0.25 (≈ 0.243 µM) | > 250 | > 250 | > 250 | 0.49 (≈ 0.477 µM) | > 250 | < 0.12 | 0.5 (≈ 0.486 µM) | antimicrobial activity against a wide range of drug resistant strains (drug resistant strains): particularly strong antimicrobial activity; MIC [14]: 0.49 µg/mL (≈ 0.477 µM); MIC [15]: 0.98 µg/mL (≈ 0.953 µM); MIC [16]: 0.25 µg/mL (≈ 0.243 µM) |
| CCC1OC(=O)CC(OC(C)=O)C(C)C(OC2OC(C)C(OC3CC(C)(O)C(O)C(C)O3)C(N(C)C)C2O)C(CC=O)CC(C)C(=O)/C=C/C(C)=C/C1COC1OC(C)C(O)C(OC)C1OC (stereo not shown) [3-acetyltylosin] | 125 (≈ 130 µM) | soluble | hardly soluble | soluble | hardly soluble | slightly soluble | > 250 | 250 (≈ 261 µM) | alkaline compounds | 7.81 (≈ 8.15 µM) | 0.25 (≈ 0.261 µM) | 250 (≈ 261 µM) | < 0.12 | > 250 | > 250 | > 250 | 0.49 (≈ 0.511 µM) | > 250 | < 0.12 | 0.25 (≈ 0.261 µM) | MIC [14]: 0.25 µg/mL (≈ 0.261 µM); MIC [15]: 0.49 µg/mL (≈ 0.511 µM); MIC [16]: 0.12 µg/mL (≈ 0.125 µM) |
| CCC(=O)OC1CC(=O)OC(CC)C(COC2OC(C)C(O)C(OC)C2OC)C=C(C)C=CC(=O)C(C)CC(CC=O)C(OC2OC(C)C(OC3CC(C)(O)C(OC(=O)CC(C)C)C(C)O3)C(N(C)C)C2O)C1C (stereo not shown) [3-propionyl-4"-isovaleryltylosin] | 3.91 (≈ 3.7 µM) | soluble | hardly soluble | soluble | hardly soluble | slightly soluble | 62.5 (≈ 59.2 µM) | 15.6 (≈ 14.8 µM) | alkaline compounds | 3.91 (≈ 3.7 µM) | 0.49 (≈ 0.464 µM) | 250 (≈ 237 µM) | 0.49 (≈ 0.464 µM) | > 250 | > 250 | > 250 | 0.49 (≈ 0.464 µM) | > 250 | 0.25 (≈ 0.237 µM) | 1 (≈ 0.947 µM) | antimicrobial activity against a wide range of drug resistant strains (drug resistant strains): particularly strong antimicrobial activity; MIC [14]: 0.49 µg/mL (≈ 0.464 µM); MIC [15]: 0.98 µg/mL (≈ 0.928 µM); MIC [16]: 1.95 µg/mL (≈ 1.85 µM) |
| CCCC(=O)OC1C(C)OC(OC2C(C)OC(OC3C(CC=O)CC(C)C(=O)C=CC(C)=CC(COC4OC(C)C(O)C(OC)C4OC)C(CC)OC(=O)CC(OC(=O)CC)C3C)C(O)C2N(C)C)CC1(C)O (stereo not shown) [3-propionyl-4"-n-butyryltylosin] | 15.6 (≈ 15 µM) | soluble | hardly soluble | soluble | hardly soluble | slightly soluble | 250 (≈ 240 µM) | 31.3 (≈ 30 µM) | alkaline compounds | 3.91 (≈ 3.75 µM) | 0.98 (≈ 0.94 µM) | 250 (≈ 240 µM) | 0.25 (≈ 0.24 µM) | > 250 | > 250 | > 250 | 0.49 (≈ 0.47 µM) | > 250 | < 0.12 | 0.5 (≈ 0.48 µM) | antimicrobial activity against a wide range of drug resistant strains (drug resistant strains): particularly strong antimicrobial activity; MIC [14]: 0.49 µg/mL (≈ 0.47 µM); MIC [15]: 1.95 µg/mL (≈ 1.87 µM); MIC [16]: 0.25 µg/mL (≈ 0.24 µM) |
| CCC(=O)OC1CC(=O)OC(CC)C(COC2OC(C)C(O)C(OC)C2OC)/C=C(C)/C=C/C(=O)C(C)CC(CC=O)C(OC2OC(C)C(OC3CC(C)(O)C(O)C(C)O3)C(N(C)C)C2O)C1C (stereo not shown) [3-propionyltylosin] | 62.5 (≈ 64.3 µM) | soluble | hardly soluble | soluble | hardly soluble | slightly soluble | > 250 | 62.5 (≈ 64.3 µM) | alkaline compounds | 3.91 (≈ 4.02 µM) | 0.25 (≈ 0.257 µM) | 250 (≈ 257 µM) | < 0.12 | > 250 | > 250 | > 250 | 0.25 (≈ 0.257 µM) | > 250 | < 0.12 | 0.25 (≈ 0.257 µM) | MIC [14]: < 0.12 µg/mL; MIC [15]: 0.25 µg/mL (≈ 0.257 µM); MIC [16]: 0.12 µg/mL (≈ 0.123 µM) |
| CCC1OC(=O)CC(O)C(C)C(OC2OC(C)C(OC3CC(C)(O)C(OC(=O)CC(C)C)C(C)O3)C(N(C)C)C2O)C(CC=O)CC(C)C(=O)/C=C/C(C)=C/C1COC1OC(C)C(O)C(OC)C1OC (stereo not shown) [4"-isovaleryltylosin] | 7.8 (≈ 7.8 µM) | soluble | hardly soluble | soluble | hardly soluble | slightly soluble | 62.5 (≈ 62.5 µM) | 15.6 (≈ 15.6 µM) | alkaline compounds | 3.91 (≈ 3.91 µM) | 0.49 (≈ 0.49 µM) | 125 (≈ 125 µM) | 0.25 (≈ 0.25 µM) | > 250 | > 250 | > 250 | 0.49 (≈ 0.49 µM) | > 250 | < 0.12 | 0.5 (≈ 0.5 µM) | antimicrobial activity against a wide range of drug resistant strains (drug resistant strains): particularly strong antimicrobial activity; MIC [14]: 0.98 µg/mL (≈ 0.98 µM); MIC [15]: 0.98 µg/mL (≈ 0.98 µM); MIC [16]: 0.25 µg/mL (≈ 0.25 µM) |
